Source: the supplement of paper PMC10307832

Columns and labels:
Experiment in all cases: relative viability (nuclei count vs DMSO), 5 days (fraction); higher = more cells survive
Tosedostat + Bortezomib = compound: CC(C)C[C@@H](C(=O)N[C@H](C(=O)OC1CCCC1)c1ccccc1)[C@H](O)C(=O)NO [Tosedostat] + CC(C)C[C@H](NC(=O)[C@H](Cc1ccccc1)NC(=O)c1cnccn1)B(O)O [Bortezomib] (partner 0.002 µM)
In short: (§1)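 Cells from lung cancer lines were seeded into 1536-well plates and, one day later, dosed by pin tool. Treatments were either a single drug or a fixed dose of an anchor drug with five library-drug doses (not always all listed) in √10 steps. After 5 days, nuclei were stained in a one-step fixation (final 0.05% Triton X-100, 1% formaldehyde, 1 ug/ml Hoechst) and counted on 4× images, and relative viability is the treated-to-vehicle nuclei ratio, as the median of duplicate plates.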

[1] = compound: CC1=NN=C(O1)C2=NN=C(C=C2)N3CCC(CC3)OC4=C(C=CC(=C4)F)Cl + Cc1nc(Nc2ncc(C(=O)Nc3c(C)cccc3Cl)s2)cc(N2CCN(CCO)CC2)n1 [Dasatinib] (partner 0.075 µM)
In short: as §1

Tosedostat + Olaparib = compound: CC(C)C[C@@H](C(=O)N[C@H](C(=O)OC1CCCC1)c1ccccc1)[C@H](O)C(=O)NO [Tosedostat] + O=C(c1cc(Cc2n[nH]c(=O)c3ccccc23)ccc1F)N1CCN(C(=O)C2CC2)CC1 [Olaparib] (partner 8 µM)
In short: as §1

Tosedostat + Pictilisib = compound: CC(C)C[C@@H](C(=O)N[C@H](C(=O)OC1CCCC1)c1ccccc1)[C@H](O)C(=O)NO [Tosedostat] + CS(=O)(=O)N1CCN(Cc2cc3nc(-c4cccc5[nH]ncc45)nc(N4CCOCC4)c3s2)CC1 [Pictilisib] (partner 1 µM)
In short: as §1

Row | Cell Line | relative viability (Tosedostat + Bortezomib; first compound 0.02 µM) | relative viability (Tosedostat + Bortezomib; first compound 0.06325 µM) | relative viability (Tosedostat + Bortezomib; first compound 0.2 µM) | relative viability (Tosedostat + Bortezomib; first compound 0.6325 µM) | relative viability (Tosedostat + Bortezomib; first compound 2 µM) | relative viability ([1]; first compound 0.253 µM) | relative viability ([1]; first compound 0.8 µM) | relative viability ([1]; first compound 2.53 µM) | relative viability ([1]; first compound 8 µM) | relative viability (Tosedostat + Olaparib; first compound 0.02 µM) | relative viability (Tosedostat + Olaparib; first compound 0.06325 µM) | relative viability (Tosedostat + Olaparib; first compound 0.2 µM) | relative viability (Tosedostat + Olaparib; first compound 0.6325 µM) | relative viability (Tosedostat + Olaparib; first compound 2 µM) | relative viability (Tosedostat + Pictilisib; first compound 0.02 µM) | relative viability (Tosedostat + Pictilisib; first compound 0.06325 µM) | relative viability (Tosedostat + Pictilisib; first compound 0.2 µM) | relative viability (Tosedostat + Pictilisib; first compound 0.6325 µM) | relative viability (Tosedostat + Pictilisib; first compound 2 µM)
1 | ABC-1 | 0.289 | 0.344 | 0.328 | 0.274 | 0.306 | 0.457 | 0.32 | 0.318 | 0.361 | 0.842 | 0.784 | 0.843 | 0.848 | 0.491 | 1 | 0.622 | 0.616 | 0.722 | 0.535
2 | BEN | 0.973 | 1.08 | 0.827 | 0.908 | 0.728 | 0.375 | 0.508 | 0.321 | 0.24 | 1.11 | 0.952 | 1.31 | 1.09 | 1.02 | 0.679 | 0.622 | 0.556 | 0.752 | 0.804
3 | CAL-12T | 0.987 | 0.897 | 0.966 | 0.85 | 0.549 | 0.315 | 0.34 | 0.374 | 0.228 | 0.769 | 0.658 | 0.588 | 0.59 | 0.549 | 0.471 | 0.417 | 0.422 | 0.484 | 0.423
4 | COR-L23 | 1.22 | 0.918 | 0.914 | 0.969 | 1.1 | 0.438 | 0.375 | 0.39 | 0.343 | 0.471 | 0.295 | 0.291 | 0.269 | 0.268 | 0.955 | 0.784 | 0.666 | 0.649 | 0.745
5 | COR-L 105 | 0.733 | 0.605 | 0.807 | 0.781 | 0.542 | 0.329 | 0.346 | 0.413 | 0.489 | 0.771 | 0.636 | 0.695 | 0.507 | 0.591 | 0.451 | 0.414 | 0.379 | 0.319 | 0.356
6 | ChaGo-K-1 | 1.15 | 1.03 | 0.938 | 0.962 | 0.78 | 0.604 | 0.531 | 0.654 | 0.352 | 0.459 | 0.399 | 0.44 | 0.377 | 0.325 | 1.1 | 0.813 | 0.754 | 0.812 | 0.638
7 | EKVX | 0.974 | 0.995 | 1.03 | 0.946 | 0.823 | 0.513 | 0.464 | 0.436 | 0.532 | 0.754 | 0.834 | 0.818 | 0.576 | 0.721 | 0.45 | 0.423 | 0.444 | 0.398 | 0.431
8 | EMC-BAC-2 | 1.13 | 1 | 1.07 | 0.944 | 0.985 | 0.319 | 0.324 | 0.362 | 0.422 | 0.517 | 0.41 | 0.459 | 0.428 | 0.378 | 0.614 | 0.544 | 0.504 | 0.544 | 0.526
